Results as given in paper PMC4884932, “Selective brain penetrable Nurr1 transactivator for treating Parkinson's disease” (Oncotarget, 2016).

Legend:
RXRβ = RXRβ (Homo sapiens, UniProt P28702); conditions: CV-1 cells, 20h
Text: (§1) For RXR: CV-1 cells were transfected with rCRBPII/RXRE-tk-Luc reporter gene and an expression vector for RXRα, β, or γ. For RAR: CV-1 cells were transfected with ERE-tk-Luc reporter gene and an expression vector for the appropriate ER-RARα, β, or γ. ER-RARs are fusion proteins, composed of the estrogen receptor (ER) DNA binding domain fused to the ligand binding domain of RARs. This system eliminates interference by the low level of endogenous RAR activity in CV1 cells as the readout comes only from the transfected ER-RAR. For PPARγ: CV-1 cells were transfected with 3x(rAOX/DR1)-tk-Luc reporter gene and an expression vector for PPARγ; for FXR: CV-1 cells were transfected with 3x(IBABP/IR1)-tk-Luc reporter gene and vectors for FXR and RXRα; for LXR: CV-1 cells were transfected with 3x(PLTP/LXRE)-tk-Luc reporter gene with vectors for LXRα or LXRβ. For Nurr1: COS7 cells were transfected with 3xNBRE-tk-luc reporter gene and full length Nurr1 with or without full-length RXRα plasmid. […] Luciferase data were normalized to co-transfected β-gal activity. Luciferase activity is expressed as percent of maximal activity obtained using specific agonists 9-cis-retinoic acid (RXR), retinoic acid (RAR), rosiglitazone (PPARγ), GW4064 (FXR), T0901317 (LXR).

PPARγ = PPARγ (Homo sapiens, UniProt P37231); conditions: at physiological concentrations
Text: as §1

[1] = biological target: T1, farnesoid X receptor (FXR) (Homo sapiens, UniProt Q96RI1); assay: Receptor transactivation assay, FXR (CV-1 cells, FXR and RXRα vectors); type: cell-based; conditions: at physiological concentrations
T1 sequence (Q96RI1 1-486): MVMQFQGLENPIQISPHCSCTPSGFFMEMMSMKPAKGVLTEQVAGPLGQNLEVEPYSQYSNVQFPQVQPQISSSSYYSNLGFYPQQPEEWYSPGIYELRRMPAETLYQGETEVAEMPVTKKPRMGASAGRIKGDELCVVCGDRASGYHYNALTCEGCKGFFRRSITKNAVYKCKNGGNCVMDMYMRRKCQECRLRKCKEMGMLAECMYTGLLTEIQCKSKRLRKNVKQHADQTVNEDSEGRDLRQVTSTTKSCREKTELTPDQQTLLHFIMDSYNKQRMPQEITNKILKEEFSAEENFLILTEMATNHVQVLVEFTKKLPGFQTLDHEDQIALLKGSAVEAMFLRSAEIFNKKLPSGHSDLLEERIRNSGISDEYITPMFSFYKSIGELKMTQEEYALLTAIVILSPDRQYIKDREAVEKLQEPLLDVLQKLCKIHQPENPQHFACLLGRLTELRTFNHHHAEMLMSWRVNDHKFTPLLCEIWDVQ
T1 sequence (P19793 1-462 partner): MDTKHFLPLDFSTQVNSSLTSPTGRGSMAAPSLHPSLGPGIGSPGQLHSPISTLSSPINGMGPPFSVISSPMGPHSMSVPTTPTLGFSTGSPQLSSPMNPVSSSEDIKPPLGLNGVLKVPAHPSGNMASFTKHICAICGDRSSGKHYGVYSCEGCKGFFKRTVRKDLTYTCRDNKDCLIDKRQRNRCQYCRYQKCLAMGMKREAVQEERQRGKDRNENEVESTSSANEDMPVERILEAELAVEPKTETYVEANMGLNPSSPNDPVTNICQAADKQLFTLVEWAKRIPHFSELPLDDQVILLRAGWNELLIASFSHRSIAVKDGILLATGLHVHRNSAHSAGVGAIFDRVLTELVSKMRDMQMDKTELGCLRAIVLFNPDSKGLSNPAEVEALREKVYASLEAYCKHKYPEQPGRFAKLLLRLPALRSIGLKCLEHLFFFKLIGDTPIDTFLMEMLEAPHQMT
Text: as §1

RXRα = biological target: T2, RXRα (Homo sapiens, UniProt P19793); assay: Receptor transactivation assay, RXRα (CV-1 cells, rCRBPII/RXRE-tk-Luc reporter); type: cell-based; conditions: 20h
T2 sequence (P19793 1-462): T1 sequence (P19793 1-462 partner)
Text: as §1

6-OHDA lesioned rats [2] = assay: TH-immunoreactive neuron count in the SN of 6-OHDA lesioned rats; type: in vivo, rat; conditions: 10mg/kg/day gavage for three weeks, compared to the vehicle-treated group, p < 0.05
Description: (§2) All surgical procedures were performed under general anesthesia with ketamine/xylazine. 2μl 6-OHDA (20 mg/ml in 0.02% ascorbic acid) was stereotaxically injected into the right striatum of male SD rats. Lesion coordinates were set according to bregma and dura in mm: ML-3.7; AP-1.0; DV-5.5. The injection rate was 2μl/5 min and the injecting needle was left for 2 minutes after injection to avoid back flow. Apomorphine-induced rotations (see below) were assessed three days post-lesion and rats with ≥ 30 full contralateral rotation/30 minutes were included in the study.
(§3) Rats were randomly grouped into vehicle control group (n = 11) and drug treatment group (n = 10). […] The control group received DMSO/corn oil (vehicle). The treatment continued for three weeks.
The caudal portion of the brains were sectioned in the coronal plane on a cryostat at 12 μm. From a random start corresponding to SNpc position, every 12th section was selected -, fixed with 4% paraformaldehyde and processed for tyrosine hydroxylase (TH) staining using mouse monoclonal anti-TH antibody (1:2000, Chemicon) and the Vectastain Elite ABC kit (Vector Lab) according to manufacturer's instruction. TH positive neurons were counted as described.

6-OHDA lesioned rats [3] = assay: Cylinder test in 6-OHDA lesioned rat model of PD; type: in vivo; conditions: 10mg/kg/day gavage for three weeks, day 17 and day 24 post-lesion, p < 0.05
Description: as §2, §3
The cylinder test was used to test for forelimb use asymmetry. Rats to be tested were placed individually in a glass cylinder (21 cm diameter, 34 cm height) and wall exploration was recorded for five minutes. Wall exploration was expressed in terms of the percentage of impaired (right) forelimb vs. total (right+left+both) usage. Paw placement test was performed before the lesion for baseline, three days post lesion and two weeks and three weeks following treatment.

Sequence of RXRβ (P28702 whole entry, the tested form may be a part): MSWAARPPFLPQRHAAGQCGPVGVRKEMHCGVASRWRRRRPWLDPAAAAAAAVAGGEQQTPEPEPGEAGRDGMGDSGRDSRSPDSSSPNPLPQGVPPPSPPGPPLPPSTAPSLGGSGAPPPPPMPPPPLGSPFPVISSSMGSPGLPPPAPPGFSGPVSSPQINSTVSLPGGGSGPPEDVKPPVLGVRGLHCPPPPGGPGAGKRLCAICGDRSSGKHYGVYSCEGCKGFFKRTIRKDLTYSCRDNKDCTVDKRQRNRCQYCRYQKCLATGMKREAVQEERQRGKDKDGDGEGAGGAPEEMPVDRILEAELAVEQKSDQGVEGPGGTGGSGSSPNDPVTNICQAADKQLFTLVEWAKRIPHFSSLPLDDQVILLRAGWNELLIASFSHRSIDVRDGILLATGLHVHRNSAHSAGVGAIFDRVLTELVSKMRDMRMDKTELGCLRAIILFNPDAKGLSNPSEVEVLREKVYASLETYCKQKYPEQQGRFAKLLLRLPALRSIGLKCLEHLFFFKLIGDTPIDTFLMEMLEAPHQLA
Sequence of PPARγ (P37231 whole entry, species assumed, one chain of several): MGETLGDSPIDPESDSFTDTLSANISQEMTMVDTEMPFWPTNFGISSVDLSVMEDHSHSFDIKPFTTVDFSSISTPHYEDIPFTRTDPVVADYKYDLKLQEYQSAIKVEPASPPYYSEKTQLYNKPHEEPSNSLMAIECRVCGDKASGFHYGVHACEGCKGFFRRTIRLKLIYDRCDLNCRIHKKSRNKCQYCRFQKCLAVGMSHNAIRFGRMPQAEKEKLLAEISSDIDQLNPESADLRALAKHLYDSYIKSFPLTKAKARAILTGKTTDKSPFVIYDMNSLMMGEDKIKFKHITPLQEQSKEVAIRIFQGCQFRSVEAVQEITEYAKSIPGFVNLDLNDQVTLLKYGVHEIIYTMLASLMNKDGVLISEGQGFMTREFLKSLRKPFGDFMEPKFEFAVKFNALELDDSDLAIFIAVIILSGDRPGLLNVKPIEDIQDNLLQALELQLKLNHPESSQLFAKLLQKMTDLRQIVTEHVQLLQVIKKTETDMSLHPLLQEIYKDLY

concentration that fully activates RXRβ (RXRβ): 1 nM
concentration that partially activates RXRβ (RXRβ): 0.1 nM
activation of RXR heterodimer of PPARγ (PPARγ): does not activate
activation of RXR heterodimer of FXR [1]: does not activate
concentration that fully activates RXRα (RXRα): 1 nM
concentration that partially activates RXRα (RXRα): 0.1 nM
SMILES: CC(/C=C/[C@@H]1C[C@]1(C)c1ccc2c(c1)C(C)(C)CCC2(C)C)=C\C(=O)O [IRX4204]
loss of TH-immunoreactive neurons in the SN (6-OHDA lesioned rats [2]): significantly reduced the loss
spontaneous forelimb use in the cylinder test (6-OHDA lesioned rats [3]): significantly improved spontaneous forelimb use to pre-lesion levels
